Test results from ChEMBL document CHEMBL3885881, “DrugMatrix”.

Organism: Rattus norvegicus
Assay: DrugMatrix - Regimen: Daily Repeat
Type: toxicity, organism-based, Sprague-Dawley
Parameters: regimen Daily Repeat, gender Male, age 6-8 weeks
Conditions: in vivo, po, route oral GAVAGE, vehicle 100 % WATER; for ABSOLUTE BASOPHIL / ABSOLUTE EOSINOPHIL / ABSOLUTE LYMPHOCYTE / ABSOLUTE MONOCYTE / ABSOLUTE SEGMENTED NEUTROPHIL / BASOPHIL / EOSINOPHIL / ERYTHROCYTE COUNT / HEMATOCRIT / HEMOGLOBIN / LEUKOCYTE COUNT / LYMPHOCYTE / MEAN CORPUSCULAR HEMOGLOBIN / MEAN CORPUSCULAR HEMOGLOBIN CONCENTRATION / MEAN CORPUSCULAR VOLUME / MONOCYTE / NEUTROPHIL / NUCLEATED RED BLOOD CELLS / PLATELET COUNT: tissue Blood; for ALANINE AMINOTRANSFERASE / ALBUMIN / ALKALINE PHOSPHATASE / ASPARTATE AMINOTRANSFERASE / BLOOD UREA NITROGEN / CARBON DIOXIDE / CHLORIDE / CHOLESTEROL / CREATINE PHOSPHOKINASE / CREATININE / GLUCOSE / LACTATE DEHYDROGENASE / LIPASE / PHOSPHORUS / POTASSIUM / SODIUM / TOTAL BILIRUBIN / TOTAL PROTEIN / URIC ACID: tissue Plasma
[1] = 0 mg/kg, 72 h, dose level Control, time 3 day
[2] = 0 mg/kg, 120 h, dose level Control, time 5 day
[3] = 5 mg/kg, 72 h, dose level Low, time 3 day

COc1cc2nc(N3CCN(C(=O)C4COc5ccccc5O4)CC3)nc(N)c2cc1OC (centres undefined) [DOXAZOSIN]
ABSOLUTE BASOPHIL [1]: 0 CELLS/uL | ABSOLUTE EOSINOPHIL [1]: 86.33 CELLS/uL | ABSOLUTE LYMPHOCYTE [1]: 12090.17 CELLS/uL | ABSOLUTE MONOCYTE [1]: 166.67 CELLS/uL | ABSOLUTE SEGMENTED NEUTROPHIL [1]: 1090.17 CELLS/uL | BASOPHIL [1]: 0% | EOSINOPHIL [1]: 0.67% | ERYTHROCYTE COUNT [1]: 5.57 x10E6/uL | HEMATOCRIT [1]: 35.33% | HEMOGLOBIN [1]: 13.83 G/DL | LEUKOCYTE COUNT [1]: 13.43 x10E3/uL | LYMPHOCYTE [1]: 89.83% | MEAN CORPUSCULAR HEMOGLOBIN [1]: 24.88 pg | MEAN CORPUSCULAR HEMOGLOBIN CONCENTRATION [1]: 39.15 G/DL | MEAN CORPUSCULAR VOLUME [1]: 63.52 fL | MONOCYTE [1]: 1.17% | NEUTROPHIL [1]: 8.33% | NUCLEATED RED BLOOD CELLS [1]: 0 /100WBC | PLATELET COUNT [1]: 1181.33 x10E3/uL | ALANINE AMINOTRANSFERASE [1]: 48.33 u/L | ALBUMIN [1]: 4.1 G/DL | ALKALINE PHOSPHATASE [1]: 395 u/L | ASPARTATE AMINOTRANSFERASE [1]: 81.83 u/L | BLOOD UREA NITROGEN [1]: 15.83 mg/dL | CARBON DIOXIDE [1]: 24.17 mmol/L | CHLORIDE [1]: 103.83 MEQ/L | CHOLESTEROL [1]: 63.67 mg/dL | CREATINE PHOSPHOKINASE [1]: 372.83 u/L | CREATININE [1]: 0.18 mg/dL | GLUCOSE [1]: 173.83 mg/dL | LACTATE DEHYDROGENASE [1]: 188.33 u/L | LIPASE [1]: 9.5 u/L | PHOSPHORUS [1]: 11.95 mg/dL | POTASSIUM [1]: 5.99 MEQ/L | SODIUM [1]: 144.43 MEQ/L | TOTAL BILIRUBIN [1]: 0.15 mg/dL | TOTAL PROTEIN [1]: 5.95 G/DL | URIC ACID [1]: 1.82 mg/dL | ABSOLUTE BASOPHIL [2]: 0 CELLS/uL | ABSOLUTE EOSINOPHIL [2]: 26.67 CELLS/uL | ABSOLUTE LYMPHOCYTE [2]: 7583.83 CELLS/uL | ABSOLUTE MONOCYTE [2]: 131.33 CELLS/uL | ABSOLUTE SEGMENTED NEUTROPHIL [2]: 674.83 CELLS/uL | BASOPHIL [2]: 0% | EOSINOPHIL [2]: 0.33% | ERYTHROCYTE COUNT [2]: 5.78 x10E6/uL | HEMATOCRIT [2]: 36.48% | HEMOGLOBIN [2]: 14.03 G/DL | LEUKOCYTE COUNT [2]: 8.42 x10E3/uL | LYMPHOCYTE [2]: 89.83% | MEAN CORPUSCULAR HEMOGLOBIN [2]: 24.3 pg | MEAN CORPUSCULAR HEMOGLOBIN CONCENTRATION [2]: 38.52 G/DL | MEAN CORPUSCULAR VOLUME [2]: 63.15 fL | MONOCYTE [2]: 1.67% | NEUTROPHIL [2]: 8.17% | NUCLEATED RED BLOOD CELLS [2]: 0 /100WBC | PLATELET COUNT [2]: 1186.67 x10E3/uL | ALANINE AMINOTRANSFERASE [2]: 50.17 u/L | ALBUMIN [2]: 4.07 G/DL | ALKALINE PHOSPHATASE [2]: 367.5 u/L | ASPARTATE AMINOTRANSFERASE [2]: 81.67 u/L | BLOOD UREA NITROGEN [2]: 16.17 mg/dL | CARBON DIOXIDE [2]: 32.33 mmol/L | CHLORIDE [2]: 101.5 MEQ/L | CHOLESTEROL [2]: 65.33 mg/dL | CREATINE PHOSPHOKINASE [2]: 255.33 u/L | CREATININE [2]: 0.17 mg/dL | GLUCOSE [2]: 139.33 mg/dL | LACTATE DEHYDROGENASE [2]: 95 u/L | LIPASE [2]: 10.5 u/L | PHOSPHORUS [2]: 10.38 mg/dL | POTASSIUM [2]: 6.11 MEQ/L | SODIUM [2]: 145.55 MEQ/L | TOTAL BILIRUBIN [2]: 0.17 mg/dL | TOTAL PROTEIN [2]: 5.98 G/DL | URIC ACID [2]: 0.93 mg/dL | ABSOLUTE BASOPHIL [3]: 0 CELLS/uL | ABSOLUTE EOSINOPHIL [3]: 0 CELLS/uL | ABSOLUTE LYMPHOCYTE [3]: 13989.67 CELLS/uL | ABSOLUTE MONOCYTE [3]: 387.67 CELLS/uL | ABSOLUTE SEGMENTED NEUTROPHIL [3]: 2189.33 CELLS/uL | BASOPHIL [3]: 0% | EOSINOPHIL [3]: 0% | ERYTHROCYTE COUNT [3]: 5.22 x10E6/uL | HEMATOCRIT [3]: 34.5% | HEMOGLOBIN [3]: 13.43 G/DL | LEUKOCYTE COUNT [3]: 16.57 x10E3/uL | LYMPHOCYTE [3]: 84.33% | MEAN CORPUSCULAR HEMOGLOBIN [3]: 25.77 pg | MEAN CORPUSCULAR HEMOGLOBIN CONCENTRATION [3]: 38.97 G/DL | MEAN CORPUSCULAR VOLUME [3]: 66.17 fL | MONOCYTE [3]: 2.33% | NEUTROPHIL [3]: 13.33% | NUCLEATED RED BLOOD CELLS [3]: 0 /100WBC | PLATELET COUNT [3]: 1263.33 x10E3/uL | ALANINE AMINOTRANSFERASE [3]: 47.33 u/L | ALBUMIN [3]: 3.93 G/DL | ALKALINE PHOSPHATASE [3]: 317.67 u/L | ASPARTATE AMINOTRANSFERASE [3]: 97 u/L | BLOOD UREA NITROGEN [3]: 16.33 mg/dL | CARBON DIOXIDE [3]: 22 mmol/L | CHLORIDE [3]: 103 MEQ/L | CHOLESTEROL [3]: 59.67 mg/dL | CREATINE PHOSPHOKINASE [3]: 763 u/L | CREATININE [3]: 0.18 mg/dL | GLUCOSE [3]: 187 mg/dL | LACTATE DEHYDROGENASE [3]: 544.33 u/L | LIPASE [3]: 9 u/L | PHOSPHORUS [3]: 11.9 mg/dL | POTASSIUM [3]: 5.79 MEQ/L | SODIUM [3]: 142.7 MEQ/L | TOTAL BILIRUBIN [3]: 0.17 mg/dL | TOTAL PROTEIN [3]: 5.73 G/DL | URIC ACID [3]: 1.7 mg/dL
